Experiments:
[1] = molecular target: T1, Serine/threonine-protein kinase 4 (Homo sapiens, UniProt Q13043); assay: Inhibition of recombinant full length N-terminal GST -tagged human MST1 expressed in baculovirus infected Sf9 insect cells using KKSRGDYMTMQIG as substrate incubated for 1 hr in presence of ATP by ADP-Glo luminescent assay
T1 sequence (Q13043 whole entry): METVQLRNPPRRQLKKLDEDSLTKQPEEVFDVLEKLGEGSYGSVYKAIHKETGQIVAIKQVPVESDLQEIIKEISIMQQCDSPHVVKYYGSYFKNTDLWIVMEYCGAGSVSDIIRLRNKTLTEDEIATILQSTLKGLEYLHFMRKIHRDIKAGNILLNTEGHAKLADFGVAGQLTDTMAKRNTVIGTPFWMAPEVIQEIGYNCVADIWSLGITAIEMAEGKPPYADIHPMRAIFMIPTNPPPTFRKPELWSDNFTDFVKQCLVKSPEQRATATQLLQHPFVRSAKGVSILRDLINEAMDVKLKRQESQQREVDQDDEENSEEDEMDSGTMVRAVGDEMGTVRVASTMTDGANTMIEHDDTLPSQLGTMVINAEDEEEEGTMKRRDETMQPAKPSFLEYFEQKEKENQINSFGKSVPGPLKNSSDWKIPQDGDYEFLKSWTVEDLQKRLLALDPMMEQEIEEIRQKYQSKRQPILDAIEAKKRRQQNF

RAW264.7 [2] = assay: Inhibition of MST1 in mouse RAW264.7 cells assessed as reduction in H2O2-stimulated MST1/MST2 autophosphorylation at T183/T180 residues preincubated for 2 hrs followed by H2O2 addition for 30 mins by Western blotting analysis; format: cell-based; conditions: dose 0.1-10 µM, time 2.5 hrs, DDE = dose-dependent effect
RAW264.7 [3] = assay: Inhibition of MST1 in mouse RAW264.7 cells assessed as reduction in H2O2-stimulated MOB1 phosphorylation at T35 residue preincubated for 2 hrs followed by H2O2 addition for 30 mins by Western blotting analysis; format: cell-based; conditions: dose 0.1-10 µM, time 2.5 hrs, DDE = dose-dependent effect

Compound	IC50 [1] [nM]	inhibition (RAW264.7 [2])	inhibition (RAW264.7 [3])
Cc1ccccc1C1C(=O)N(C)c2cnc(Nc3ccc(C4(C#N)CC4)cc3)nc2N1C (stereo not given)	256	–	–
CN1C(=O)C2(CCCCC2)N(C)c2nc(Nc3ccc(S(N)(=O)=O)cc3)ncc21	272	–	–
CN1C(=O)C(CC2CC2)N(C)c2nc(Nc3ccc(S(N)(=O)=O)cc3)ncc21 (stereo not given)	211	–	–
CC1C(=O)N(C)c2cnc(Nc3ccc(S(N)(=O)=O)cc3)nc2N1C (stereo not given)	313	–	–
Cc1c(F)cccc1C1C(=O)N(C)c2cnc(Nc3ccc(S(N)(=O)=O)cc3)nc2N1C (stereo not given)	419	–	–
COc1cccc(C2C(=O)N(C)c3cnc(Nc4ccc(S(N)(=O)=O)cc4)nc3N2C)c1 (stereo not given)	954	–	–
CN1C(=O)C(c2cccc(C(F)(F)F)c2)N(C)c2nc(Nc3ccc(S(N)(=O)=O)cc3)ncc21 (stereo not given)	2710	–	–
CN1C(=O)C(Cc2ccccc2)N(C)c2nc(Nc3ccc(S(N)(=O)=O)cc3)ncc21 (stereo not given)	> 10000	–	–
CN1C(=O)C(c2ccc(F)cc2)N(C)c2nc(Nc3ccc(S(N)(=O)=O)cc3)ncc21 (stereo not given)	1770	–	–
CN1C(=O)C(c2ccccc2)N(C)c2nc(Nc3ccc(S(N)(=O)=O)cc3)ncc21 (stereo not given)	383	–	–
COc1ccccc1C1C(=O)N(C)c2cnc(Nc3ccc(S(N)(=O)=O)cc3)nc2N1C (stereo not given)	251	–	–
CC(C)C1C(=O)N(C)c2cnc(Nc3ccc(S(N)(=O)=O)cc3)nc2N1C (stereo not given)	254	–	–
CN1CC(=O)N(C)c2cnc(Nc3ccc(S(N)(=O)=O)cc3)nc21	495	–	–
CCC1C(=O)N(C)c2cnc(Nc3ccc(S(N)(=O)=O)cc3)nc2N1C (stereo not given)	479	–	–
CNS(=O)(=O)c1ccc(Nc2ncc3c(n2)N(C)C(c2c(F)cccc2F)C(=O)N3C)cc1 (stereo not given)	318	–	–
CN1C(=O)C(c2cccc(Cl)c2)N(C)c2nc(Nc3ccc(S(N)(=O)=O)cc3)ncc21 (stereo not given)	989	–	–
Cc1ccccc1C1C(=O)N(C)c2cnc(Nc3ccc(S(=O)(=O)N(C)C)cc3)nc2N1C (stereo not given)	219	–	–
CN1C(=O)C(c2c(F)cccc2F)N(C)c2nc(Nc3ccc(S(=O)(=O)N(C)C)cc3)ncc21 (stereo not given)	181	–	–

These reach a lower IC50 [1]. Values come first.

IC50 [1] [nM]	Compound	inhibition (RAW264.7 [2])	inhibition (RAW264.7 [3])
168	Cc1ccc(F)cc1C1C(=O)N(C)c2cnc(Nc3ccc(S(N)(=O)=O)cc3)nc2N1C (stereo not given)	–	–
153	Cc1ccccc1C1C(=O)N(C)c2cnc(Nc3ccc(C(C)(C)C#N)cc3)nc2N1C (stereo not given)	–	–
129	CN1C(=O)C(c2ccccc2Cl)N(C)c2nc(Nc3ccc(S(N)(=O)=O)cc3)ncc21 (stereo not given)	–	–
119	CCNS(=O)(=O)c1ccc(Nc2ncc3c(n2)N(C)C(c2ccccc2C)C(=O)N3C)cc1 (stereo not given)	–	–
104	CN1C(=O)c2sccc2N(C)c2nc(Nc3ccc(S(N)(=O)=O)cc3)ncc21	Dde	Dde
104	CNS(=O)(=O)c1ccc(Nc2ncc3c(n2)N(C)C(c2ccccc2C)C(=O)N3C)cc1 (stereo not given)	–	–
60	Cc1ccccc1C1C(=O)N(C)c2cnc(Nc3ccc(S(=O)(=O)NCC4CC4)cc3)nc2N1C (stereo not given)	–	–
57	CN1C(=O)C(c2ccccc2Br)N(C)c2nc(Nc3ccc(S(N)(=O)=O)cc3)ncc21 (stereo not given)	–	–
53	Cc1ccccc1C1C(=O)N(C)c2cnc(Nc3ccc(S(=O)(=O)NC4CC4)cc3)nc2N1C (stereo not given)	–	–
51	CCc1ccccc1C1C(=O)N(C)c2cnc(Nc3ccc(S(N)(=O)=O)cc3)nc2N1C (stereo not given)	–	–
